Read-outs that look alike come from different tables or passages of the source.
Experiments:
[1] = Single dose toxicity study for maximum tolerated dose; format: in vivo
Method: The single dose toxicity study on compound X was conducted in accordance with Good Laboratory Practice Principles as published by the OECD in 1998, in accordance with the Drugs and Cosmetics Rule (New Drugs and Clinical trials, 2019/DCGI). Compound X (formulated in vehicle i.e. 0.5% sodium salt of carboxymethyl cellulose) was administered to Sprague Dawley rats once by oral route on the day of scheduled treatment. The three treatment groups were 250 mg, 500 mg, and 1000 mg/kg body weight, while vehicle control was administered to control group. The rat equivalent doses were calculated from the dosage used in mice experiments following FDA guidelines for drug administration. The doses finally administered were 10, 20 and 40 times the corresponding mice equivalent dose. Food, but not water, was removed thus letting the animals fast over-night prior to dosing. […] Animals were subsequently observed once daily for any signs of toxicity, mortality, or any other observations including conditions of skin, hair coat, eyes, mucous membrane, movement, activity, tremors, convulsions, salivation, diarrhea, posture, piloerection and lethargy. Food intake, water intake and body weight of animals was recorded weekly. Terminal sacrifice of surviving animals was performed after 14 days using CO2 euthanasia technique following which animals were necropsied. Animals were fasted over night before necropsy. Gross observations were recorded.

[2] = Pharmacokinetic study, oral, serum LC-MS; format: in vivo, SD rats; details: for Cl/F_obs / Vz/F_obs / AUC(0-t) / Cmax / Tmax / AUC(0-inf) / MRT inf / half-life: free drug coarse suspension; for AUC(0-t) / Cmax / Tmax / AUC(0-inf) / MRT inf / half-life: Sprague-Dawley (SD); for AUC(0-inf): read-out: AUC 0-inf_obs; for MRT inf: read-out: MRT 0-inf_obs; for half-life: read-out: t½ (converted)
Method: Healthy male SD rats (weighing 200-230 gm) were used for the pharmacokinetic study. The animals were fasted overnight and had free access to water. The animals were divided into six groups with each group having 6 male SD rats (6×6=36) and were orally administered with optimized compound X nano lipid carrier formulation and coarse suspension (free drug) of compound X. All the formulations were administered orally with the help of rat oral feeding tube. The group comprises as follows, GROUP 1: Only vehicle sodium suspension as control/blank. GROUP 2: Compound X optimized NLC formulation by oral delivery (25 mg/kg). GROUP 3: Compound X free drug as coarse suspension by oral delivery (25 mg/kg). GROUP 4: Compound X free drug as coarse suspension by oral delivery (50 mg/kg). GROUP 5: Compound X free drug as coarse suspension by oral delivery (100 mg/kg). GROUP 6: Compound X free drug as coarse suspension by oral delivery (200 mg/kg). Blood samples were withdrawn from retro-orbital venous plexus puncture at time intervals of 0.25, 0.5, 1, 2, 4, 8, 12, 24 and 48 hours. The blood samples were allowed to clot and centrifuged for 15 min at 4500 rpm. The serum was separated and transferred into clean micro centrifuge tubes and stored at −80° C. until further analysis. 50 μl of rat serum was taken from samples and added to extraction solvent 2.5% IPA in n-Hexane (2 mL) containing internal standard (SCTK-14 of 2.5 ng) than Vortexed for 10 minutes, the samples were centrifuged at 4500 rpm and 4° C. for 15 minutes. After centrifugation, samples were stored at −80° C. for 30 minutes, and the supernatant organic layer was transferred and evaporated to dryness in a thermostatically controlled water bath maintained at 30° C. under steam of nitrogen for 30 minutes. After drying the residue was reconstituted by adding 200 microlitres of acetonitrile into pre-labelled vials and vortexed for 20 seconds, and then the samples were injected into the LC-MS system for analysis.
The pharmacokinetic parameters of compound X were calculated by non-compartmental estimations using PK solver 2.0 software.

[3] = male, rat, serum, 25 mg/kg oral
[4] = male, rat, serum, 50 mg/kg oral
[5] = male, rat, serum, 100 mg/kg oral
[6] = male, rat, serum, 200 mg/kg oral

Compound: COc1ccc(C(=O)C2=C3OC(C)(C)[C@@H](CC=C(C)C)C[C@@]34C[C@@H](CC=C(C)C)C(C)(C)[C@@](CC=C(C)C)(C2=O)C4=O)cc1OC [Compound X]
- gross morphological changes in organs ([1]; 250, 500, 1000 mg/kg single oral dose, necropsy): no gross morphological changes in any organ
- Average food intake, Final ([1]; Female, 250 mg/Kg bw): 16.65 gram/day/animal
- Average food intake, Initial ([1]; Female, 250 mg/Kg bw): 20 gram/day/animal
- Average food intake, Middle ([1]; Female, 250 mg/Kg bw): 16.32 gram/day/animal
- Average water intake, Final ([1]; Female, 250 mg/Kg bw): 16.65 ml/day/animal
- Average water intake, Initial ([1]; Female, 250 mg/Kg bw): 20 ml/day/animal
- Average water intake, Middle ([1]; Female, 250 mg/Kg bw): 16.32 ml/day/animal
- Body weight, Final ([1]; Female, 250 mg/Kg bw): 176.35 gram
- Body weight, Initial ([1]; Female, 250 mg/Kg bw): 151.99 gram
- Body weight, Mid ([1]; Female, 250 mg/Kg bw): 174.54 gram
- Average food intake, Final ([1]; Female, 500 mg/Kg bw): 17.09 gram/day/animal
- Average food intake, Initial ([1]; Female, 500 mg/Kg bw): 18.22 gram/day/animal
- Average food intake, Middle ([1]; Female, 500 mg/Kg bw): 18.13 gram/day/animal
- Average water intake, Final ([1]; Female, 500 mg/Kg bw): 17.09 ml/day/animal
- Average water intake, Initial ([1]; Female, 500 mg/Kg bw): 18.22 ml/day/animal
- Average water intake, Middle ([1]; Female, 500 mg/Kg bw): 18.13 ml/day/animal
- Body weight, Final ([1]; Female, 500 mg/Kg bw): 175.8 gram
- Body weight, Initial ([1]; Female, 500 mg/Kg bw): 153.32 gram
- Body weight, Mid ([1]; Female, 500 mg/Kg bw): 176.55 gram
- Average food intake, Final ([1]; Female, 1000 mg/Kg bw): 16.97 gram/day/animal
- Average food intake, Initial ([1]; Female, 1000 mg/Kg bw): 18.17 gram/day/animal
- Average food intake, Middle ([1]; Female, 1000 mg/Kg bw): 17.82 gram/day/animal
- Average water intake, Final ([1]; Female, 1000 mg/Kg bw): 16.97 ml/day/animal
- Average water intake, Initial ([1]; Female, 1000 mg/Kg bw): 18.17 ml/day/animal
- Average water intake, Middle ([1]; Female, 1000 mg/Kg bw): 17.82 ml/day/animal
- Body weight, Final ([1]; Female, 1000 mg/Kg bw): 179.52 gram
- Body weight, Initial ([1]; Female, 1000 mg/Kg bw): 153.81 gram
- Body weight, Mid ([1]; Female, 1000 mg/Kg bw): 178.58 gram
- Average food intake, Final ([1]; Male, 250 mg/Kg bw): 22.62 gram/day/animal
- Average food intake, Initial ([1]; Male, 250 mg/Kg bw): 20.03 gram/day/animal
- Average food intake, Middle ([1]; Male, 250 mg/Kg bw): 20.79 gram/day/animal
- Average water intake, Final ([1]; Male, 250 mg/Kg bw): 22.62 ml/day/animal
- Average water intake, Initial ([1]; Male, 250 mg/Kg bw): 20.03 ml/day/animal
- Average water intake, Middle ([1]; Male, 250 mg/Kg bw): 20.79 ml/day/animal
- Body weight, Final ([1]; Male, 250 mg/Kg bw): 244.21 gram
- Body weight, Initial ([1]; Male, 250 mg/Kg bw): 171.94 gram
- Body weight, Mid ([1]; Male, 250 mg/Kg bw): 216.62 gram
- Average food intake, Final ([1]; Male, 500 mg/Kg bw): 23.29 gram/day/animal
- Average food intake, Initial ([1]; Male, 500 mg/Kg bw): 20.99 gram/day/animal
- Average food intake, Middle ([1]; Male, 500 mg/Kg bw): 21.14 gram/day/animal
- Average water intake, Final ([1]; Male, 500 mg/Kg bw): 23.29 ml/day/animal
- Average water intake, Initial ([1]; Male, 500 mg/Kg bw): 20.99 ml/day/animal
- Average water intake, Middle ([1]; Male, 500 mg/Kg bw): 21.14 ml/day/animal
- Body weight, Final ([1]; Male, 500 mg/Kg bw): 243.14 gram
- Body weight, Initial ([1]; Male, 500 mg/Kg bw): 176.3 gram
- Body weight, Mid ([1]; Male, 500 mg/Kg bw): 229.75 gram
- Average food intake, Final ([1]; Male, 1000 mg/Kg bw): 19.95 gram/day/animal
- Average food intake, Initial ([1]; Male, 1000 mg/Kg bw): 20.76 gram/day/animal
- Average food intake, Middle ([1]; Male, 1000 mg/Kg bw): 20.74 gram/day/animal
- Average water intake, Final ([1]; Male, 1000 mg/Kg bw): 19.95 ml/day/animal
- Average water intake, Initial ([1]; Male, 1000 mg/Kg bw): 20.76 ml/day/animal
- Average water intake, Middle ([1]; Male, 1000 mg/Kg bw): 20.74 ml/day/animal
- Body weight, Final ([1]; Male, 1000 mg/Kg bw): 226.19 gram
- Body weight, Initial ([1]; Male, 1000 mg/Kg bw): 176.24 gram
- Body weight, Mid ([1]; Male, 1000 mg/Kg bw): 217.65 gram
- effect on food and water consumption ([1]; both gender, all three doses vs vehicle control): no significant treatment related effect
- difference in AUC between doses ([2]; free compound X at 25, 50, 100 and 200 mg/kg, except at 200 mg/kg): no appreciable difference in AUC
- Cl/F_obs ([2]; 25 mg/kg oral): 3.338 ± 0.33 mg)/(ng/ml)/h
- Vz/F_obs ([2]; 25 mg/kg oral): 71.906 ± 29.05 (mg)/(ng/ml)
- Cl/F_obs ([2]; 50 mg/kg oral): 8.071 ± 2.12 mg)/(ng/ml)/h
- Vz/F_obs ([2]; 50 mg/kg oral): 193.686 ± 112.43 (mg)/(ng/ml)
- Cl/F_obs ([2]; 100 mg/kg oral): 18.233 ± 4.3 mg)/(ng/ml)/h
- Vz/F_obs ([2]; 100 mg/kg oral): 346.653 ± 2.6193 (mg)/(ng/ml)
- Cl/F_obs ([2]; 200 mg/kg oral): 10.882 ± 4.58 mg)/(ng/ml)/h
- Vz/F_obs ([2]; 200 mg/kg oral): 209.737 ± 91.22 (mg)/(ng/ml)
- AUC ([2]; male, SD, rat, serum, oral, free compound X, 200 mg/kg dose): ~20 ng·h/mL
- AUC(0-t) [2, 3]: 6.56 ± 1.57 ng·h/mL
- Cmax [2, 3]: 0.853 ± 0.09 ng/mL
- Tmax [2, 3]: 4.67 ± 3.05 h
- AUC(0-inf) [2, 3]: 7.54 ± 0.8 ng·h/mL
- MRT inf [2, 3]: 22.2 ± 9.59 h
- half-life [2, 3]: 14.7 ± 5.07 h
- AUC(0-t) [2, 4]: 4.74 ± 0.1 ng·h/mL
- Cmax [2, 4]: 2.49 ± 0.14 ng/mL
- Tmax [2, 4]: 0.333 ± 0.14 h
- AUC(0-inf) [2, 4]: 6.49 ± 1.71 ng·h/mL
- MRT inf [2, 4]: 28.4 ± 22.8 h
- half-life [2, 4]: 18.6 ± 12.2 h
- AUC(0-t) [2, 5]: 5.29 ± 0.99 ng·h/mL
- Cmax [2, 5]: 0.343 ± 0.15 ng/mL
- Tmax [2, 5]: 0.667 ± 0.28 h
- AUC(0-inf) [2, 5]: 5.74 ± 1.6 ng·h/mL
- MRT inf [2, 5]: 21 ± 3.98 h
- half-life [2, 5]: 13.8 ± 3.74 h
- AUC(0-t) [2, 6]: 19.1 ± 7.84 ng·h/mL
- Cmax [2, 6]: 2.83 ± 2.16 ng/mL
- Tmax [2, 6]: 2.92 ± 4.4 h
- AUC(0-inf) [2, 6]: 20.6 ± 7.98 ng·h/mL
- MRT inf [2, 6]: 15.7 ± 2.87 h
- half-life [2, 6]: 13.4 ± 4.31 h

Source: patent US20240269106A1, “SMALL MOLECULE MODULATOR TARGETING A RARE HISTONE MODIFICATION REGULATING ADIPOGENESIS AND PHARMACEUTICAL FORMULATION THEREOF” (COUNCIL OF SCIENTIFIC AND INDUSTRIAL RESEARCH AN INDIAN …, priority 2021, published 2024)
